In brackets after ≈: the same amount, converted by molar mass. Read-outs that look alike come from different tables or passages of the source.
Key:
[1] = Cytotoxicity in HCV-1a replicon cells, Promega CellTiter-Glo cell viability assay
poliovirus (PV type 2) = test: microbe, parasite or virus in culture; assay type: cell-based; conditions: Enterovirus C, read-out: PV-2 EC50
poliovirus (PV type 3) = test: microbe, parasite or virus in culture; assay type: cell-based; conditions: Enterovirus C, read-out: PV-3 EC50
in vitro [2] = conditions: African green monkey, PV CC50
poliovirus (PV type 1) = test: microbe, parasite or virus in culture; assay type: cell-based; conditions: Enterovirus C, read-out: PV-1 EC50
[3] = test system: genotype 1a H-77 replicon; test: HCV-1a replicon potency in RLuc-1 cells, bioluminescence; assay type: cell-based; conditions: for EC50: Hepatitis C virus, 72 h, read-out: HCV-1a Replicon EC50 (μM); for HCV-1a Replicon Selectivity Index: CC50/EC50, genotype 1a replicon
in vitro [4] = conditions: human, PV CC50
hRV-86 = test: Rhinovirus type 86 antiviral assay in Hela Rh cells, MTS readout; assay type: cell-based, Human rhinovirus; conditions: Human rhinovirus sp., HRV86, HeLa Rh, Hela Rh cells; read-out: hRV-86 EC50
[5] = Cytostatic/cytotoxic effect in Hela Rh cells (rhinovirus methodology, MTS); conditions: human, CC50, Hela Rh cells
hRV-9 = test: Rhinovirus type 9 antiviral assay in Hela Rh cells, MTS readout; assay type: cell-based, Human rhinovirus; conditions: Human rhinovirus sp., HRV9, HeLa Rh, Hela Rh cells; read-out: hRV-9 EC50
hRV-63 = test: Rhinovirus type 63 antiviral assay in Hela Rh cells, MTS readout; assay type: cell-based, Human rhinovirus; conditions: Human rhinovirus sp., HRV63, HeLa Rh, Hela Rh cells; read-out: hRV-63 EC50
hRV-45 = test: Rhinovirus type 45 antiviral assay in Hela Rh cells, MTS readout; assay type: cell-based, Human rhinovirus; conditions: Human rhinovirus sp., HRV45, HeLa Rh, Hela Rh cells; read-out: hRV-45 EC50
hRV-29 = test: Rhinovirus type 29 antiviral assay in Hela Rh cells, MTS readout; assay type: cell-based; conditions: Human rhinovirus sp., HRV29, HeLa Rh, Hela Rh cells; read-out: hRV-29 EC50
hRV-39 = test: Rhinovirus type 39 antiviral assay in Hela Rh cells, MTS readout; assay type: cell-based, Human rhinovirus; conditions: Human rhinovirus sp., HRV39, HeLa Rh, Hela Rh cells; read-out: hRV-39 EC50
hRV-85 = test: Rhinovirus type 85 antiviral assay in Hela Rh cells, MTS readout; assay type: cell-based, Human rhinovirus; conditions: Human rhinovirus sp., HRV85, HeLa Rh, Hela Rh cells; read-out: hRV-85 EC50
hRV-15 = test: Rhinovirus type 15 antiviral assay in Hela Rh cells, MTS readout; assay type: cell-based, Human rhinovirus; conditions: Human rhinovirus sp., HRV15, HeLa Rh, Hela Rh cells; read-out: hRV-15 EC50
hRV-70 = test: Rhinovirus type 70 antiviral assay in Hela Rh cells, MTS readout; assay type: cell-based, Human rhinovirus; conditions: Human rhinovirus sp., HRV70, HeLa Rh, Hela Rh cells; read-out: hRV-70 EC50
hRV-72 = test: Rhinovirus type 72 antiviral assay in Hela Rh cells, MTS readout; assay type: cell-based, Human rhinovirus; conditions: Human rhinovirus sp., HRV72, HeLa Rh, Hela Rh cells; read-out: hRV-72 EC50
hRV-41 = test: Rhinovirus type 41 antiviral assay in Hela Rh cells, MTS readout; assay type: cell-based, Human rhinovirus; conditions: Human rhinovirus sp., HRV41, HeLa Rh, Hela Rh cells; read-out: hRV-41 EC50
hRV-14 = test: Rhinovirus type 14 antiviral assay in Hela Rh cells, MTS readout; assay type: cell-based, Human rhinovirus; conditions: Rhinovirus B, HRV14, HeLa Rh, Hela Rh cells; read-out: hRV-14 EC50
hRV-42 = test: Rhinovirus type 42 antiviral assay in Hela Rh cells, MTS readout; assay type: cell-based, Human rhinovirus; conditions: Human rhinovirus sp., HRV42, HeLa Rh, Hela Rh cells; read-out: hRV-42 EC50
HIV-2 strain (ROD) = test: Inhibition of replication of HIV-2 (ROD strain) in MT-4 cells, MTT assay; assay type: cell-based; conditions: Human immunodeficiency virus 2, MT4, 120 h; MT-4 cells, MTT assay, five days after infection, 50% protection from cytopathic effect; read-out: EC50 (μM) HIV-2 (ROD)
HIV-1 strain IIIB = test: Inhibition of replication of HIV-1 (IIIB strain) in MT-4 cells, MTT assay; assay type: cell-based; conditions: Human immunodeficiency virus 1, IIIB, MT4, 120 h; MT-4 cells, MTT assay, five days after infection, 50% protection from cytopathic effect; read-out: EC50 (μM) HIV-1 (IIIB)
in vitro [6] = conditions: human

Structure (SMILES) | CC50 at 72 h [1] [µM] | EC50 (poliovirus (PV type 2); HeLa) [mg/L] | EC50 (poliovirus (PV type 2); Vero) [mg/L] | EC50 (poliovirus (PV type 3); HeLa) [mg/L] | EC50 (poliovirus (PV type 3); Vero) [mg/L] | CC50 (in vitro [2]) [mg/L] | EC50 (poliovirus (PV type 1); HeLa) [mg/L] | EC50 (poliovirus (PV type 1); Vero) [mg/L] | EC50 [3] [µM] | CC50 (in vitro [4]) [mg/L] | CC50 [5] [mg/L] | EC50 (HIV-2 strain (ROD)) [µM] | EC50 (HIV-1 strain IIIB) [µM] | CC50 (in vitro [6]) [µM] | other results
COCc1nc2c(N3CCN(C(=O)COc4ccc(Cl)cc4)CC3)nc(N)nc2o1 [Example 186, 5-amino-7-[4-(4-chlorophenoxyacetyl)piperazin-1-yl]-2-methoxylmethyloxazolo[5,4-d]pyrimidine] | > 44.4 | 9.42 (≈ 21.8 µM) | 2.96 (≈ 6.84 µM) | 3.21 (≈ 7.42 µM) | 10.7 (≈ 24.7 µM) | 95.2 (≈ 220 µM) | 3.16 (≈ 7.3 µM) | 1.07 (≈ 2.47 µM) | > 44.4 | > 50 | – | – | – | – | –
COc1ccc(OCC(=O)N2CCN(c3nc(N)nc4sc(Cc5ccc(F)cc5)nc34)CC2)cc1 [Example 230, 1-(4-(5-amino-2-(4-fluorobenzyl)thiazolo[5,4-d]pyrimidin-7-yl)piperazin-1-yl)-2-(4-methoxyphenoxy)ethanone] | – | – | – | – | – | – | – | – | – | – | > 50 | – | – | – | EC50 (hRV-86): 2.36 mg/L (≈ 4.64 µM); EC50 (hRV-9): 0.09 mg/L (≈ 0.177 µM); EC50 (hRV-63): 0.54 mg/L (≈ 1.06 µM); EC50 (hRV-45): 1.13 mg/L (≈ 2.22 µM); EC50 (hRV-29): 0.04 mg/L (≈ 0.0787 µM); EC50 (hRV-39): 0.04 mg/L (≈ 0.0787 µM); EC50 (hRV-85): 0.61 mg/L (≈ 1.2 µM); EC50 (hRV-15): 0.38 mg/L (≈ 0.747 µM); EC50 (hRV-70): 2.37 mg/L (≈ 4.66 µM); EC50 (hRV-72): 8.55 mg/L (≈ 16.8 µM); EC50 (hRV-41): 0.58 mg/L (≈ 1.14 µM); EC50 (hRV-14): 0.39 mg/L (≈ 0.767 µM); EC50 (hRV-42): < 0.39 mg/L
Nc1nc(N2CCN(C(=O)COc3ccc(Cl)cc3)CC2)c2nc(-c3ccc(F)cc3)[nH]c2n1 [Example 389, 1-(4-(2-amino-8-(4-fluorophenyl)-9H-purin-6-yl)piperazin-1-yl)-2-(4-chlorophenoxy)ethanone] | > 44.4 | 16.7 (≈ 34.6 µM) | ≥ 50 | 37.6 (≈ 78 µM) | > 50 | > 150 | > 16.7 | > 50 | > 44.4 | > 50 | – | – | – | – | –
Nc1nc(N2CCN(C(=O)COc3ccc(Cl)cc3)CC2)c2nc(CCc3ccccc3)oc2n1 [Example 189, 5-amino-2-(2-phenylethyl)-7-[4-(4-chlorophenoxyacetyl)piperazin-1-yl]oxazolo[5,4-d]pyrimidine] | 40.5 | 1.15 (≈ 2.33 µM) | 0.4 (≈ 0.811 µM) | > 50 | 1.19 (≈ 2.41 µM) | > 150 | 1.14 (≈ 2.31 µM) | 0.86 (≈ 1.74 µM) | 20.6 | > 50 | – | – | – | – | HCV-1a Replicon Selectivity Index [3]: 2.0
Cc1ccc(-c2nc3c(N4CCN(C(=O)COc5ccc(Cl)cc5)CC4)nc(N)nc3s2)cc1 [Example 295, 1-(4-(5-amino-2-p-tolylthiazolo[5,4-d]pyrimidin-7-yl)piperazin-1-yl)-2-(4-chlorophenoxy)ethanone] | – | – | – | – | – | – | – | – | – | – | > 50 | – | – | – | –
CCCCCc1nc2c(N3CCN(C(=O)COc4ccc(Cl)cc4)CC3)nc(N)nc2s1 [Example 297, 1-(4-(5-amino-2-pentylthiazolo[5,4-d]pyrimidin-7-yl)piperazin-1-yl)-2-(4-chlorophenoxy)ethanone] | – | – | – | – | – | – | – | – | – | – | > 50 | – | – | – | EC50 (hRV-86): 2.42 mg/L (≈ 5.09 µM); EC50 (hRV-9): 0.14 mg/L (≈ 0.295 µM); EC50 (hRV-63): 0.53 mg/L (≈ 1.12 µM); EC50 (hRV-45): 2.29 mg/L (≈ 4.82 µM); EC50 (hRV-29): 0.13 mg/L (≈ 0.274 µM); EC50 (hRV-39): 0.08 mg/L (≈ 0.168 µM); EC50 (hRV-85): 1.01 mg/L (≈ 2.13 µM); EC50 (hRV-15): 0.38 mg/L (≈ 0.8 µM); EC50 (hRV-70): 4.31 mg/L (≈ 9.07 µM); EC50 (hRV-72): 2.46 mg/L (≈ 5.18 µM); EC50 (hRV-41): 1.06 mg/L (≈ 2.23 µM); EC50 (hRV-14): 0.4 mg/L (≈ 0.842 µM); EC50 (hRV-42): 4.45 mg/L (≈ 9.37 µM)
Cc1ccc(CCc2nc3c(N4CCN(C(=O)COc5ccc(Cl)cc5)CC4)nc(N)nc3s2)cc1 [Example 260, 1-(4-(5-amino-2-(4-methylphenethyl)thiazolo[5,4-d]pyrimidin-7-yl)piperazin-1-yl)-2-(4-chlorophenoxy)ethanone] | – | – | – | – | – | – | – | – | – | – | > 50 | – | – | – | EC50 (hRV-86): > 50 mg/L; EC50 (hRV-9): > 50 mg/L; EC50 (hRV-63): 27.9 mg/L (≈ 53.3 µM); EC50 (hRV-45): 2.46 mg/L (≈ 4.7 µM); EC50 (hRV-29): > 50 mg/L; EC50 (hRV-39): 13 mg/L (≈ 24.8 µM); EC50 (hRV-85): 1.35 mg/L (≈ 2.58 µM); EC50 (hRV-15): > 50 mg/L; EC50 (hRV-70): > 50 mg/L; EC50 (hRV-72): > 50 mg/L; EC50 (hRV-41): > 50 mg/L; EC50 (hRV-14): > 50 mg/L; EC50 (hRV-42): > 50 mg/L
Nc1nc(N2CCN(C(=O)COc3ccc(F)cc3)CC2)c2nc(CCc3ccc(F)cc3)sc2n1 [Example 51, 1-(4-(5-amino-2-(4-fluorophenethyl)thiazolo[5,4-d]pyrimidin-7-yl)piperazin-1-yl)-2-(4-fluorophenoxy)ethanone] | – | 0.23 (≈ 0.45 µM) | 0.13 (≈ 0.255 µM) | 20.2 (≈ 39.5 µM) | 2.68 (≈ 5.25 µM) | 50 (≈ 97.9 µM) | 0.13 (≈ 0.255 µM) | 0.12 (≈ 0.235 µM) | – | > 50 | – | > 210 | 4.9 | 210 | –
Nc1nc(N2CCN(C(=O)COc3ccc(Cl)cc3)CC2)c2nc(CCc3ccc(F)cc3)sc2n1 [Example 49, 1-(4-(5-amino-2-(4-fluorophenethyl)-thiazolo[5,4-d]pyrimidin-7-yl)piperazin-1-yl)-2-(4-chlorophenoxy)ethanone] | > 44.4 | 0.13 (≈ 0.247 µM) | 0.21 (≈ 0.398 µM) | > 50 | 1.17 (≈ 2.22 µM) | 101 (≈ 192 µM) | 0.13 (≈ 0.247 µM) | 0.13 (≈ 0.247 µM) | 42.1 | > 50 | – | > 7.06 | 1.13 | > 50 | HCV-1a Replicon Selectivity Index [3]: >1.1
Nc1nc(N2CCN(C(=O)COc3ccc(Cl)cc3)CC2)c2nc(C3CCCCC3)oc2n1 [Example 187, 5-amino-2-cyclohexyl-7-[4-(4-chlorophenoxyacetyl)piperazin-1-yl]oxazolo[5,4-d]pyrimidine] | 24.3 | > 50 | ≥ 50 | > 50 | > 50 | 118 (≈ 250 µM) | > 50 | > 50 | 19 | > 50 | – | – | – | – | HCV-1a Replicon Selectivity Index [3]: 1.3
CCOC(=O)Cc1nc(N2CCN(C(=O)COc3ccc(Cl)cc3)CC2)c2cc(-c3ccc(F)cc3)sc2n1 [Example 354, ethyl 2-(4-(4-(2-(4-chlorophenoxy)acetyl)piperazin-1-yl)-6-(4-fluorophenyl)thieno[2,3-d]pyrimidin-2-yl)acetate] | – | ≥ 50 | > 50 | > 50 | > 50 | 129 (≈ 227 µM) | > 50 | > 50 | – | > 50 | – | > 159 | > 159 | 159 | –
Cc1nc(N2CCN(C(=O)COc3ccc(Cl)cc3)CC2)c2nc(-c3ccc(F)cc3)sc2n1 [Example 47, 2-(4-chlorophenoxy)-1-(4-(2-(4-fluorophenyl)-5-methylthiazolo[5,4-d]pyrimidin-7-yl)piperazin-1-yl)ethanone] | – | ≥ 50 | 0.35 (≈ 0.703 µM) | > 50 | > 50 | > 150 | > 50 | 0.64 (≈ 1.29 µM) | – | > 50 | – | > 50 | > 50 | > 50 | –
Nc1nc(N2CCN(C(=O)COc3ccc(Cl)cc3Cl)CC2)c2nc(CCc3ccc(F)cc3)sc2n1 [Example 54, 1-(4-(5-amino-2-(4-fluorophenethyl)thiazolo[5,4-d]pyrimidin-7-yl)piperazin-1-yl)-2-(2,4-dichlorophenoxy)ethanone] | – | ≥ 50 | ≥ 50 | ≥ 50 | > 50 | 138 (≈ 245 µM) | > 50 | > 50 | – | > 50 | – | > 157 | > 157 | 157 | –

Reference: US9730944B2, “Antiviral activity of novel bicyclic heterocycles” (priority 2010, dated 2017)
